Laboratory results taken from patent US7511123B2, “Immuno-interactive fragments of the alpha-C subunit of inhibin” (Prince Henry's Institute of Medical Research, priority 1999, dated 2009).

Columns and labels:
[1] = system: As#128 and/or As#41; test: Inhibin IFMA with pre-immunoabsorption of antisera by peptides; assay type: binding, sheep
Text: This IFMA is used in the measurement of inhibin in serum from women with ovarian cancer and is presented at this juncture as a reference to the following procedures. The IFMA is a sandwich antibody assay in 96-well microtiter plates. The capture antiserum is As #128 and the labeled antiserum As #41, both raised in sheep to the alpha subunit of human inhibin. Sheep As #128 was also boosted with human recombinant 30-kDa inhibin. The microtiter plates were coated with a caprylic acid IgG cut of antiserum #128. Inhibin standard and serum samples were added and incubated for 2 hours at room temperature. A biotinylated antiserum (As #41) which has been immunopurified by absorption to a column of bovine (alpha)C subunit fusion protein (as previously described, Robertson et al., 1997, supra) followed by elution with a glycine (pH 2.5) buffer, was added to bind to the antibody-bound inhibin (2-hour incubation at room temperature). Fluorescently (Eu) labeled-streptavidin that has a high affinity for biotin is added (30 minutes at room temperature) and the Eu-bound streptavidin is counted in a time-resolved fluorimeter. The Eu measured is proportional to the inhibin bound by the two antisera.
As another approach, the competition of combinations of peptides at a maximum saturating dose was assessed in the IFMA (FIGS. 7-9). […] This suppression in binding provides a measure of the contribution of that particular epitope to the assay.

[2] = system: As #41; test: Two-site assay design variation: biotinylated #41 pre-incubated with peptide; assay type: binding, sheep; details: non-biotinylated peptides 0.1-1.0 micromolar
Procedure: (iv) In a variation to the above design, biotinylated #41 was pre-incubated with peptide (0.1-1.0 micromolar) for 1.5 hours at room temperature and then added to the As #128 coated plate pre-bound with inhibin as for (i)-(iii). […] Combination of peptide #5 and #30 led to 74% decrease.

[3] = system: PO-22; test: Solid phase binding of Set 2 peptides to PO-22; set-up: species or system mouse; key: +++; ΦΦΦ strong effect; +, Φ weak effect; details: Set 2 biotinylated peptides 24 micromoles/L
Procedure: (§1) The binding of the 41 biotinylated peptides as set forth in Table 7 (peptide set 2) to the mouse monoclonal antibodies (PO# series) was assessed as follows:
(§2) a) Assay 1 (solid phase assay). The assay was undertaken as outlined in assay 1 of Example 2. Biotinylated peptides (24 micromoles/L) were initially bound to streptavidin-coated plates. Mab (at an appropriate dilution to give a detectable response, 1:1000, 1:10000 dilution of the culture medium) was then added and incubated for 1.5 hr. The amount of bound Mab was determined using horseradish peroxidase-bound anti-mouse IgG serum and enzyme activity detected at 450-630 nm using an ELISA plate reader.

[4] = system: R1; test: Solid phase binding of Set 2 peptides to R1; set-up: species or system mouse; key: +++; ΦΦΦ strong effect; +, Φ weak effect; details: Set 2 biotinylated peptides 24 micromoles/L
Procedure: as §1, §2

[5] = system: R1; test: RIA of Set 2 peptides with R1; assay type: binding, mouse; set-up: key: ΦΦΦ strong effect; +, Φ weak effect; a) limited binding; details: Set 2 biotinylated peptides 0.8 and 0.08 micromoles/L
Procedure: (§3) The binding of the 41 biotinylated peptides as set forth in Table 7 (peptide set 2) to the mouse monoclonal antibodies (PO# series) was assessed as follows: b) Assay 2 (radioimrnunoassay, RIA) using iodinated human inhibin A as tracer. Mabs (at an appropriate dilution, see above) were incubated with iodinated human recombinant inhibin in the presence of biotinylated peptides (0.8 and 0.08 micromoles/L final concentration) overnight at room temperature.

[6] = system: As #41; test: Competitive 2-site assay (Assay 3), approach (b); assay type: binding, sheep; details: biotinylated peptide pools or peptides incubated with iodinated As #41
Text: This assay was developed to establish the relative importance of the individual peptides and peptide pools (identified as epitopes in Assays 1 and 2) in the sandwich antibody format used in the IFMA with As #128 as capture antibody and As #41 as detection antibody. Two approaches (a and b) were considered, Approach (a) explores the cross-reaction of peptides with inhibin for the immobilized As #128 while Approach (b) assesses their cross-reaction with inhibin for As #41.
Approach (b). In this approach, the competition of peptides with the As #41 antiserum using the sandwich antibody format was assessed. Hr-Inhibin was initially incubated with the As #128 coated wells for 1 hour at room temperature. The biotinylated peptide pools and/or individual peptides were incubated together with iodinated As #41 for 1 hour and then added to the inhibin bound As #128 coated plates and incubated for 2 hours at room temperature. Plates were then washed to remove any unbound material and the resulting activity was measured in the gamma counter.

[7] = system: PO-6; test: Solid phase binding of Set 2 peptides to PO-6; set-up: species or system mouse; key: +++; ΦΦΦ strong effect; +, Φ weak effect; details: Set 2 biotinylated peptides 24 micromoles/L
Procedure: as §1, §2

[8] = system: PO-22; test: RIA of Set 2 peptides with PO-22; assay type: binding, mouse; details: Set 2 biotinylated peptides 0.8 and 0.08 micromoles/L
Procedure: as §3

[9] = system: As #41; test: RIA (Assay 2): competition with iodinated inhibin for As #41; assay type: binding, sheep
In short: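 Graded doses of peptide or hr-inhibin standard competed with iodinated human recombinant 30 kDa inhibin tracer for the sheep antiserum at a set dilution, overnight at 4°C. Bound tracer was precipitated with goat anti-sheep IgG and gamma-counted. ED50 is the dose producing 50% loss of tracer binding.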

PO-22 SPB [3]: +++
R1 SPB [4]: +
blocking of As #41 binding to the inhibin-As#128 complex [6]: 50%
PO-6 SPB [7]: +++
Substance: SGSG WSPSALRLLQRPPE [Peptide 5]
% suppression at 2ng inhibin ([1]; As#41 label pre-absorbed with peptide, As#128 coating antibody: buffer): 67%
% suppression at 2ng inhibin ([1]; As#128 coating antibody pre-absorbed with peptide(s), As#41 label: buffer): 55%
% suppression at 2ng inhibin ([1]; both antisera pre-absorbed, label gives peptide(s) on As#128 coating first, then on As#41 label): 73%
inhibition with biotinylated #41 pre-incubated with peptide [2]: 50%
R1 RIA [5]: ΦΦΦ
PO-22 RIA [8]: ΦΦ
As#41 ED50 ([9]; biotinylated peptides, 50% fall in binding of iodinated inhibin): 15 pM
cross-reaction with hr-inhibin for As #41 in RIA ([9]; in words): cross-reacted strongly
ED50 values As#41 ([9]; non-biotinylated peptides, hr-inhibin A as standard): 400 pM
